The values below come from patent US20230338473A1, “AN[…] TARGETING IL-2, IL-9, AND IL-15 SIGNALING FOR THE TREATMENT OF CYTOK[…] AND CYTOKINE STORM ASSOCIATED DISORDERS” (priority 2020, published 2023).

For experiment [1], the system named is IL-15. The experiment is described as follows: PT-18β proliferation assay (WST-1), IL-15. Format: cell-based. The note with it: PT-18β cells, 1 nM cytokine, BNZ-γ as 1:20 or 1:60 dilution of HEK293T supernatant, 2 days. The source says: (§1) For each of the six γc-cytokines, indicator cell lines: NK92, a human NK cell line NK92 available by American Type Culture Collection (ATCC) (catalog # CRL-2407), CTLL-2, a murine CD8 T cells line available from ATCC, and PT-18, a murine mast cell line and its subclone PT-18β, is transfected with human IL-2Rβ gene to make the cells responsive to IL-2 and IL-15 (Tagaya et al., 1996, EMBO J. 15:4928-39), and is used to quantitatively determine the γc-cytokine’s growth-promoting activity (See Current protocols in Immunology from Wiley and Sons for a methodological reference).
(§2) Once the appropriate doses of the cytokine that yield the 50% and 95% maximum response from the indicator cell line is determined, various concentrations (ranging from 1 pM to 10 µM) of the purified or synthesized custom derivative peptide is added to each well containing the cytokine and indicator cells. The reduction in light absorbance at 450 nm is used as an indicator of inhibition of cytokine-stimulated cellular proliferation. Typically, the cells are stimulated by the cytokines such that the absorbance of the well containing indicator cell line and the cytokine is between 2.0 and 3.0, which is reduced to a range of 0.1 to 0.5 by the addition of inhibitory peptides. […]
(§3) The growth-responses of the cells were determined 2 days after the introduction of BNZ-γpeptide and the cytokine using the WST-1 assay. […]
A general note: Tetrazolium dyes change colour on reduction, which living cells bring about.

In experiment [2] the test system is IL-9. The experiment is described as follows: PT-18β proliferation assay (WST-1), IL-9. Format: cell-based. The note with it: PT-18β cells, 1 nM cytokine, BNZ-γ as 1:20 or 1:60 dilution of HEK293T supernatant, 2 days.
From the text: as §1, §2, §3

Experiment [3] concerns IL-3. The experiment is described as follows: PT-18β proliferation assay (WST-1), IL-3 negative control. The settings on record: PT-18β cells, 1 nM cytokine, BNZ-γ as 1:20 or 1:60 dilution of HEK293T supernatant, 2 days. Format: cell-based.
From the text: as §1, §2, §3

In experiment [4] the test system is IL-4. The experiment is described as follows: PT-18β proliferation assay (WST-1), IL-4. In kind it is cell-based. The settings on record: PT-18β cells, 1 nM cytokine, BNZ-γ as 1:20 or 1:60 dilution of HEK293T supernatant, 2 days.
From the text: as §1, §2, §3

The test system of experiment [5] is IL-2. The experiment is described as follows: CTLL-2 proliferation assay (3H-thymidine), IL-2. Format: cell-based. The settings on record: CTLL-2 cells, 50 pM IL-2, BNZ-γ 0.1, 1, 10 µM, 20 hours, 3H-thymidine (FIG. 3B). How it is done:
In a similar assay, the murine cell line CTTL2 was used. In this assay the cells were cultured with 0.5 nM of recombinant IL-2 in RPMI 10% fetal Calf Serum. To set up the proliferation assay, cells were washed from the cytokines 3 times. Cells were seeded at 1 × 10(5) cells per well of a 96-well plate with final concentration of 50 pM of IL-2 or IL-15. Various concentration of BNZ-γ peptide (0.1, 1, and 10 µM) was added to each well. Cells were cultured for 20 hours and in the last 4 hours, ^3H-thymidine was added to the plates. Cells were harvested and radioactivity measured to determine cell proliferation levels.
Inhibition of γc-cytokine-induced proliferation of an indicator cell population by antagonist custom derivative peptides is measured by the 3H-thymidine incorporation assay. Briefly, radiolabeled thymidine (1 microCi) is given to 20-50,000 cells undergoing proliferation in the presence of cytokines. The cell-incorporated radioactivity is measured by trapping cell-bound radioactivity to a glass-fiber filter using a conventional harvester machines (Example, Filtermate Universal Harvester from Perkin-Elmer), after which the radioactivity is measured using a b-counter (Example 1450, Trilux microplate scintillation counter).

Experiment [6] deals with STAT5. The experiment is described as follows: IL-15-mediated tyrosine phosphorylation of STAT5 in PT-18β cells (immunoblot). Format: cell-based. The settings on record: PT-18β cells stimulated by IL-15, anti-phospho-STAT5 immunoblot. An excerpt:
In addition to stimulating cellular proliferation, binding of the γc-cytokines to their receptors causes a diverse array of intracellular events. (Rochman et al., 2009, Nat Rev Immunol 9:480-90; Pesu et al., 2005, Immunol Rev 203:127-42). Immediately after the cytokine binds to its receptor, a tyrosine kinase called Jak3 (Janus-kinase 3) is recruited to the receptor at the plasma membrane. This kinase phosphorylates the tyrosine residues of multiple proteins including the γc-subunit, STAT5 (Signal Transducer and Activator of Transcription 5) and subunits of the PI3 (Phosphatidylinositol 3) kinase. Among these, the phosphorylation of STAT5 has been implicated in many studies as being linked to the proliferation of cells initiated by the γc-cytokine (Hennighausen and Robinson, 2008, Genes Dev 22:711-21). In accordance with these published data, whether or not the BNZ-γ peptide inhibits the tyrosine phosphorylation of STAT5 molecule in PT-18β cells stimulated by IL-15 was examined (results shown in FIG. 4).
PT-18β cells were stimulated by IL-15 in the presence or absence of BNZ-γ peptide. Cytoplasmic proteins were extracted from the cells according to a conventional method (Tagaya et al., 1996, EMBO J 15:4928-39). […]

Experiment [7] deals with NSG mice transplanted with huPBMCs and infected with LCMV. The note with it: mouse, in vivo.
In experiment [8] the test system is pro-inflammatory cytokines IL-6, IFN-γ, TNF-α, and MCP-1. The settings on record: mouse, in vivo.

Sequence of IL-3 (P01586 27-166): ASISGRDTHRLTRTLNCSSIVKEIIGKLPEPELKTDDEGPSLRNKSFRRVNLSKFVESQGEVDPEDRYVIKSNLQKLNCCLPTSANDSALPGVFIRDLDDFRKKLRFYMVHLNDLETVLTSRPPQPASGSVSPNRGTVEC

Turning to “I-K-E-F-L-Q-R-F-I-H-I-V-Q-S-I-I-N-T-S (IKEFLQRFIHIVQSIINTS) [BNZ-γ]”, the “growth-promoting activity of IL-15” value in experiment [1] is “significantly (p<0.01 Student’s T test) reduced”. The “growth-promoting activity of IL-9” value in experiment [2] is “significantly (p<0.01 Student’s T test) reduced”. For the same substance, the “growth-promoting activity of IL-3 (a non γc-cytokine)” value in experiment [3] is “not inhibited”. In addition, the “cellular proliferation stimulated by IL-4” value in experiment [4] is “not affected”. In addition, the “IL-2 induced cellular proliferation” value in experiment [5] is reported as “suppresses”. Besides, in experiment [6], the “tyrosine phosphorylation of STAT5 induced by IL-15” value was “markedly reduced”. Also, in experiment [7], the “protection from cytokine storm-induced mortality” value is 100% and the “survival over the 5-week study period” value is listed as “survived the 5-week study period”. Also, the “pro-inflammatory cytokine plasma levels” value in experiment [8] is recorded as “drastically reduced”. In experiment [8] (2 mg/kg), the “course of IL-6 plasma level over the measurement period” value is given as “clear incremental decreases”, the “course of TNF-α plasma level over the measurement period” value is recorded as “clear incremental decreases”, the “drop in IFN-γ plasma level versus PBS vehicle control” value was found to be 4.5 fold and the “drop in IL-6 plasma level versus PBS vehicle control” value stood at 6 fold. Besides, in experiment [8] (2 mg/kg), the “drop in MCP-1 plasma level versus PBS vehicle control” value is 7.5 fold and the “drop in TNF-α plasma level versus PBS vehicle control” value was found to be 7 fold.
